This note sets out measurements from ChEMBL document CHEMBL4130492, “Tying up tranylcypromine: Novel selective histone lysine specific demethylase 1 (LSD1) inhibitors” (Eur J Med Chem, 2017).

The test system of assay [1] is RPMI-8226. As to the kind of experiment: Antiproliferative activity against human RPMI8226 cells after 10 days by MTS assay. In kind it is functional, cell-based. To be noted: RPMI-8226, 240 h. For orientation: Formazan colour is commonly taken as a measure of viable cells.
Assay [2] addresses T1, Amine oxidase [flavin-containing] A (Homo sapiens, UniProt P21397).
T1 sequence (P21397 whole entry): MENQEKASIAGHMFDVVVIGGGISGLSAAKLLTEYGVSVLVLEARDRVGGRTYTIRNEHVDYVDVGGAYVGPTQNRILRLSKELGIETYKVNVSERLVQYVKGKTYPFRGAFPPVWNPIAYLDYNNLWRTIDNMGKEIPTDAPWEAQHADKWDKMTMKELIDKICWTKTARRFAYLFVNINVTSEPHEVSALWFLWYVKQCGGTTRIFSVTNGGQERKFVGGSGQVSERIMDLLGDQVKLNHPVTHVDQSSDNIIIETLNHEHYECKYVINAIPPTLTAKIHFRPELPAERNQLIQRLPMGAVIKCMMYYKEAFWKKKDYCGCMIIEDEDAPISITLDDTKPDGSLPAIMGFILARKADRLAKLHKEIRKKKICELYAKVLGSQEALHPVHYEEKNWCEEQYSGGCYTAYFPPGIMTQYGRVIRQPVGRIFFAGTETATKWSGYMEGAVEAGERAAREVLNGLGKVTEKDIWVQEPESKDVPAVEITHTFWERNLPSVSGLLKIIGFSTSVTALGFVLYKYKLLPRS
Description: biochemical.
Description: Inhibition of human recombinant MAO-A expressed in baculovirus infected insect cells by luminescence assay

Assay [3] has as its target T2, Lysine-specific histone demethylase 2 (Homo sapiens, UniProt Q8NB78).
T2 sequence (Q8NB78 whole entry): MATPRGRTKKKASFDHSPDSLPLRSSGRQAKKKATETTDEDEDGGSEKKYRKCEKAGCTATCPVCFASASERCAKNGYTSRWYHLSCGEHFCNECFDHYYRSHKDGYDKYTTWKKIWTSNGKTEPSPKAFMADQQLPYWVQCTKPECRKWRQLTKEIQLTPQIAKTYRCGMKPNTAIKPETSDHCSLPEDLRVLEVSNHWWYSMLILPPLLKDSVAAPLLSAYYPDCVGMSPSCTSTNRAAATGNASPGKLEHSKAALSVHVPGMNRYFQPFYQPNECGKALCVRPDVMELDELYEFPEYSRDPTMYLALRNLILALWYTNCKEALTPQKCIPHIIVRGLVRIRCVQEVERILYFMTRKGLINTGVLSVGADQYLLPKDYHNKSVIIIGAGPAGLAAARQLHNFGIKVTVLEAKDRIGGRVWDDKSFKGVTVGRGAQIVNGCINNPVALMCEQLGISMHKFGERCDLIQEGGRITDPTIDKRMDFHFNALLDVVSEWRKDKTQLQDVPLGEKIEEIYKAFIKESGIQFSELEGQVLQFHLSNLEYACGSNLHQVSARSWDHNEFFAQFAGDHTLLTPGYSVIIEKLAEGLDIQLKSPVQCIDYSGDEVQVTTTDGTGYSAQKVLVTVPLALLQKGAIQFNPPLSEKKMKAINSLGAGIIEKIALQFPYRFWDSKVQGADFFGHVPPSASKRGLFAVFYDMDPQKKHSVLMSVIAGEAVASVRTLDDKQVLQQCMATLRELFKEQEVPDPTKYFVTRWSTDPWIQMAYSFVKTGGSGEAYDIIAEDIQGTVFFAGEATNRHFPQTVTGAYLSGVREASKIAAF
Description: Inhibition of human full length LSD2 using biotin-labeled H3K4me2 (1 to 24 residues) as substrate after 1 hr by TR-FRET assay

The test system of assay [4] is RPMI-8226. Description: Antiproliferative activity against human RPMI8226 cells after 3 days by MTS assay. The following applies: RPMI-8226, 72 h. Type of assay: functional, cell-based.
Assay [5] deals with MV4-11. As to the kind of experiment: Antiproliferative activity against human MV4-11 cells after 3 days by MTS assay. To be noted: MV4-11, 72 h. In kind it is functional, cell-based.
The test system of assay [6] is MV4-11. As to the kind of experiment: Antiproliferative activity against human MV4-11 cells after 10 days by MTS assay. In kind it is functional, cell-based. The following applies: MV4-11, 240 h.
The target in assay [7] is T3, Amine oxidase [flavin-containing] B (Homo sapiens, UniProt P27338).
T3 sequence (P27338 whole entry): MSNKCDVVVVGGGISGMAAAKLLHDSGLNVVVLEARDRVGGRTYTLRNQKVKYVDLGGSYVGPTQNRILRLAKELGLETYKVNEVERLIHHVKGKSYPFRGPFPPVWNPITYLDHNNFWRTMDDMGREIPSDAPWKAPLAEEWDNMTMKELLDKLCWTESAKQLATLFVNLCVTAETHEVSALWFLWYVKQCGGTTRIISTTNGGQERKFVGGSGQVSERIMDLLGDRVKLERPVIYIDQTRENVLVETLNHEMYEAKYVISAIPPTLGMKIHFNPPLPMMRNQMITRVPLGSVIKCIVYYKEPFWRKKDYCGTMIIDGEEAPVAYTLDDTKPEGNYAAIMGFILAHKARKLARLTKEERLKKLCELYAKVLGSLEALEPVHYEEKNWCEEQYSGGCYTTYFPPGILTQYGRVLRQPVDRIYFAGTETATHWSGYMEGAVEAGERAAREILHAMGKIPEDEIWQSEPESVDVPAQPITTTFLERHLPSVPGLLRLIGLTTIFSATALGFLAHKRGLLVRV
Description: biochemical.
Description: Inhibition of human recombinant MAO-B expressed in baculovirus infected insect cells by luminescence assay

As usually defined, the IC50 is the concentration needed to halve the response being measured. As for `NC1CCC(N[C@@H]2C[C@H]2c2ccccc2)CC1` (stereo partly specified), the IC50 in the assay on RPMI-8226 [1] was over 20 µM; in assay [2], over 100 µM; in assay [3] it was over 100 µM; with RPMI-8226 [4], over 20 µM; in the assay on MV4-11 [5] it was over 20 µM; in the assay with MV4-11 [6], 0.03 µM.

For the compound `N[C@H]1CC[C@H](N[C@@H]2[C@H]3Cc4ccccc4[C@H]32)CC1` (racemic), the IC50 in assay [2] and in assay [7] was over 100 µM each time.

Regarding `N[C@H]1CC[C@@H](N[C@@H]2[C@H]3Cc4ccccc4[C@H]32)CC1` (racemic), the IC50 in assay [2] and in assay [7] was over 100 µM each time.

As to `N[C@H]1CC[C@H](N[C@H]2[C@H]3Cc4ccccc4[C@H]32)CC1` (racemic), the IC50 was over 20 µM in the assay on RPMI-8226 [1]; over 100 µM in assay [2]; over 20 µM in the assay with RPMI-8226 [4]; over 20 µM in the assay on MV4-11 [5]; over 100 µM in assay [7]; 0.7 µM in the assay on MV4-11 [6].

Regarding `COc1ncccc1CN[C@H]1[C@H]2Cc3ccccc3[C@H]21` (racemic), the IC50 is 79.7 µM in assay [2] and over 100 µM in assay [7].

Take `COc1ncccc1CN[C@@H]1[C@H]2Cc3ccccc3[C@H]21` (racemic): the IC50 in assay [2], in assay [3] and in assay [7] was over 100 µM in each case.

In the case of `N[C@H]1CC[C@@H](N[C@H]2[C@H]3Cc4ccccc4[C@H]32)CC1` (racemic), the IC50 in the assay on RPMI-8226 [1] was over 20 µM; in assay [2], over 100 µM; in the assay on RPMI-8226 [4], over 20 µM; in the assay with MV4-11 [5], over 20 µM; in assay [7], over 100 µM; in the assay on MV4-11 [6] it was 0.2 µM.

Consider `N[C@@H]1[C@H]2Cc3ccccc3[C@@H]12` (relative stereo), for which the IC50 in assay [2] and in assay [7] was over 100 µM each time.

For the compound `N[C@H]1[C@H]2Cc3ccccc3[C@@H]12` (relative stereo), the IC50 in assay [2] and in assay [7] was over 100 µM throughout.
